In patent US20240018120A1, “MAGL INHIBITORS” (H. LUNDBECK A/S, priority 2020, published 2024):

Legend:
[1] = test system: rat formalin paw model of inflammatory pain; test: Rat formalin paw model of inflammatory pain; assay type: in vivo; settings: 0.6 mg/kg, 3 mg/kg and 10 mg/kg oral, 4 h pre-test; early and/or late phases; vs vehicle
Method: In the rat formalin paw model formalin is administered into the right […] of a rat in order to induce pain (observed by hind limb licking duration and frequency).
Male Sprague Dawley rats were divided into three cohorts to enable testing in the Laboras™ equipment to be carried out over three days in a balanced design to give treatment groups of 10. On the day of the study, male Sprague Dawley rats were weighed, tail marked and dosed orally with vehicle, test compound (0.1, 0.3, 0.6, 1, 3 or 10 mg/kg) or pregabalin (30 mg/kg) 4 h pre-test using a 5 mL/kg dosing volume. For Example 6 the vehicle used was 0.5% methylcellulose in water and for Example 8 the vehicle used was 20% HP-b-CD. Up to six animals were dosed at a time. After 4 h, rats received an intraplantar injection of 50 μL of a 2.5% v/v formalin solution into the right hind paw. Rats were immediately placed into the Laboras™ cages and data acquisition started. The primary measures recorded by Laboras™ for the formalin paw model are hind limb licking duration and frequency. Locomotion is also reported as maximum speed, average speed when moving or over the whole-time bin and distance travelled. After 40 min, when data acquisition was complete, rats were removed from the cages.
On removal from the test cages, rats were anaesthetised with the gaseous anaesthetic isoflurane (5% v/v isoflurane in oxygen) and blood samples were collected by cardiac puncture. Brains were then removed, rinsed in phosphate buffered saline (PBS), hemi-sected and frozen separately in liquid nitrogen.
Data were analysed with Statistica software (TIBCO, USA version 11.1). All data are expressed as means±standard error of the mean (sem) to one decimal place. […] Time course data were analysed by repeated measures analysis of variance (ANOVA) followed by one-way ANOVAs at each time point and subsequent Dunnett's post hoc tests. […]

[2] = test system: cryopreserved human hepatocytes; test: In vitro human hepatocyte stability; assay type: in vitro ADME; settings: human hepatocytes 0.5×10^6 cells/mL, 1 μM
Method: The metabolic stability of test articles (1 μM) in commercially sourced, pooled donor, cryopreserved human hepatocytes (0.5×10^6 cells/mL) was determined in duplicate. The CLint reactions (250 μL) were initiated by addition of test compound. Aliquots (25 μL) were taken at 0, 15, 30, 45, 60, 90, 120 and 240 minutes and then protein crashed with ice-cold acetonitrile containing internal standard then centrifuged (3220 g for 25 minutes). Supernatant was used for LC-MS/MS analysis. The in vitro half-life (in vitro t½) was determined from the slope value: in vitro t1/2=−0.693/k. Conversion of the in vitro t1/2 (in min) into the scale-up unbound intrinsic clearance (Scaled-up unbound CLint, in mL/min/kg) was done using the following equation (mean of duplicate determinations), with data shown in Table 5: Scaled-up unbound CLint=kV/N×scaling factor. V=incubation volume (0.25 mL); N=number of hepatocytes per well ([…]). Scaling factors for in vivo intrinsic clearance prediction are listed below: […]

MAGL [3] = biological target: T1, MAGL (Homo sapiens, UniProt Q99685); test: In vitro competitive substrate hydrolysis enzyme activity assay (pNPA), HEK293 cell lysates; assay type: biochemical; set-up: expressed in transfected cells; host or cells: HEK293; settings: HEK293 lysate
T1 sequence (Q99685 1-303): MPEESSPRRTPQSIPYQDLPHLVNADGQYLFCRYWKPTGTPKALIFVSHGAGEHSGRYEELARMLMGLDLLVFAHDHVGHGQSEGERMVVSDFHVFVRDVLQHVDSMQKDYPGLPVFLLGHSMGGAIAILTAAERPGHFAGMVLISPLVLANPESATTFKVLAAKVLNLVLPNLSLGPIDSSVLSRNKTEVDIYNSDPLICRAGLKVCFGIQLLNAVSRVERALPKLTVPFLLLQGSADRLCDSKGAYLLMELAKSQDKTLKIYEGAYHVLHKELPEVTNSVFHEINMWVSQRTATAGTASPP
How it was run: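 Lysates of HEK293 cells expressing human MAGL (~1.2 μg protein) preincubated 30 min at 25° C with inhibitor in 50 mM HEPES pH 7.0, 200 mM KCl, 1 mM EDTA. pNPA substrate then added (2× stock 2.5 mM), and A405 followed for 20 min at 25° C. Rates normalized to DMSO, and IC50 from 4-parameter fit.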

MAGL [4] = biological target: T1, MAGL; test: In vitro competitive activity-based protein profiling, PC3 human cell membrane proteomes; assay type: biochemical; set-up: endogenous in cells; host or cells: PC3 human cells (membrane proteome); settings: human PC3 membrane proteome
How it was run: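 Competitive ABPP in PC3 membrane proteome (2.0 mg/mL protein): inhibitors preincubated 30 min at 37° C, then JW912-Bodipy probe added for 30 min at room temperature. MAGL band fluorescence after SDS-PAGE normalised to DMSO; IC50 from 4-parameter sigmoidal fit.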

Question: What does the source list for `O=C(Nc1cccnn1)[C@H]1CC12CCN(C(=O)OC(C(F)(F)F)C(F)(F)F)CC2` [Example 6, 1,1,1,3,3,3-Hexafluoropropan-2-yl (S)-1-(pyridazin-3-ylcarbamoyl)-6-azaspiro[2.5]octane-6-carboxylate]?
Answer: measure of spontaneous pain (hind limb licking frequency) [1]: statistically significant reduction; Scaled-up unbound CLint [2]: 5.79 mL/min/kg; IC50 (MAGL [3]): 0.00826 µM; IC50 (MAGL [4]): 0.0046 µM
